Source: patent US11591365B2, “BCL9 peptides and variants thereof” (WntRx Pharmaceuticals Inc., priority 2017, dated 2023)
Where a SMILES comes first, the peptide text is derived from it. Bridges are numbered along the chain shown (N, C = ends). [ ]: non-standard residue; d: D form. 2Nal = N[C@@H](Cc1ccc2ccccc2c1)C(=O)O; Ala(cPr) = N[C@@H](CC1CC1)C(=O)O; NMeE = CN[C@@H](CCC(=O)O)C(=O)O; NMeQ = CN[C@@H](CCC(N)=O)C(=O)O; Cha = N[C@@H](CC1CCCCC1)C(=O)O; Cba = N[C@@H](CC1CCC1)C(=O)O; S5 = C=CCCC[C@](C)(N)C(=O)O; Ac6c = NC1(C(=O)O)CCCCC1

Legend:
LEF-TCF-bla HCT116 cells = test: Wnt reporter assay: Wnt/Beta-Catenin-LEF-TCF-bla HCT116 inhibitor screen, constitutively activated; format: cell-based; conditions: 5 hours incubation with compound
Description: In various embodiments, a polypeptide described herein inhibits binding of BCL9 to β-catenin when assessed in a Wnt transcription assay. In some embodiments, the Wnt transcription assay is a cell-based assay. In some embodiments, the cell-based Wnt transcription assay is a GeneBLAzer® beta-lactamase (bla) reporter assay. Various cell lines, transformed cell lines or primary cells derived from a healthy subject or subject suffering from a disease can be used in this assay. A cell line known to be dependent on canonical Wnt/β-catenin signaling for its survival may also be used. In some embodiments, CellSensor™ LEF/TCF-bla HCT-116 cells are used in this reporter assay. These cells contain a beta-lactamase (BLA) reporter gene under the control of a 0-catenin/LEF/TCF response element stably integrated into HCT-116 cells. As the cells constitutively express beta-lactamase, adding a polypeptide that inhibits binding of BCL9 to β-catenin in this assay leads to reduced production of beta-lactamase. The efficiency of the polypeptide in suppressing Wnt transcription can therefore be quantitatively calculated in this assay. In some embodiments, a polypeptide described herein suppresses the Wnt transcription as measured in a GeneBLAzer® beta-lactamase (bla) reporter assay, which is indicative of the ability of the polypeptide to inhibit binding of BCL9 to β-catenin.
Wnt/Beta-Catenin-LEF-TCF-bla HCT116-Inhibitor Screen, Constitutively Activated. LEF-TCF-bla HCT116 cells are thawed and prepared as described above for the Activator Screen. 32 μL of cell suspension is added to each well of a 384-well Poly-D-Lysine assay plate. Cells in Assay Media are incubated for 16-24 hours in the plate at 37° C./5% CO2 in a humidified incubator. 4 μL of a 10× serial dilution of ICG-001 (control inhibitor starting concentration, 25,000 nM) or compounds are added to appropriate wells of the plate. 4 μL of Assay Media is added to all wells to bring the final assay volume to 40 μL. The plate is incubated for 5 hours at 37° C./5% CO2 in a humidified incubator. 8 μL of 1 μM Substrate Loading Solution is added to each well and the plate is incubated for 2 hours at room temperature. The plate is read on a fluorescence plate reader.

Colo320DM = Colo320DM cell viability; format: cell-based, human
Description: In some embodiments, a polypeptide described herein inhibits binding of BLC9 to β-catenin when assessed in a cell-viability assay. In some embodiments, the cell-viability assay is a CellTiterGlo luminescent assay, wherein the viability of cells is quantitatively measured. Various cell lines, transformed cell lines or primary cells derived from a healthy subject or subject suffering from a disease can be used in this assay.

β-catenin [1] = molecular target: T1, β-catenin (Homo sapiens, UniProt P35222); test: ka(1/Ms)
Description: (§1) Table printed on a drawing sheet, FIG. 1
Head of the field: ka(1/Ms)
(§2) First copying reader's note: Kinetic binding constants printed under a sensorgram plot (Biacore assay of β-catenin binding according to the description).

β-catenin [2] = molecular target: T1, β-catenin; test: kd(1/s)
Description: as §1
Head of the field: kd(1/s)
as §2

β-catenin [3] = molecular target: T1, β-catenin; test: KD(nM)
Description: as §1
Head of the field: KD(nM)
as §2

T1 sequence (P35222 2-781 limits assumed): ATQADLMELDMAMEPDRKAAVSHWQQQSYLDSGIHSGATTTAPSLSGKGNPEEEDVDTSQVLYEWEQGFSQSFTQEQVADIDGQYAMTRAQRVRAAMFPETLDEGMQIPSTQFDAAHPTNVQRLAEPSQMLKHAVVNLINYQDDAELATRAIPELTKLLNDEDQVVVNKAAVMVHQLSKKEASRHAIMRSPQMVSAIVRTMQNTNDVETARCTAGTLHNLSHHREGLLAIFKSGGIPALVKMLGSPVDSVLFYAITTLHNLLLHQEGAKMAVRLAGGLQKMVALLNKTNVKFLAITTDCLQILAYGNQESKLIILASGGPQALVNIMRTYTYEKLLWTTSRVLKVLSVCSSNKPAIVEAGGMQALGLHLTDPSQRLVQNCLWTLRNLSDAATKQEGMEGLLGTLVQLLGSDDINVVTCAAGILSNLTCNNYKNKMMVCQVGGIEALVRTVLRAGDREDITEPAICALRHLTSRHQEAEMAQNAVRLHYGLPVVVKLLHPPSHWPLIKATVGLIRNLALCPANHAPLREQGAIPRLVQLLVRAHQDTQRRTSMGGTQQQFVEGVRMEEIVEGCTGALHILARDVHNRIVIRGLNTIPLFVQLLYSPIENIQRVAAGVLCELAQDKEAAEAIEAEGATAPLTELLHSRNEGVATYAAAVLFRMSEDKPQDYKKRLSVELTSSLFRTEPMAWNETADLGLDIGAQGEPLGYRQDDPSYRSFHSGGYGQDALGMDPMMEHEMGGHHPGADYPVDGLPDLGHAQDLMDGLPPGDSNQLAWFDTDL

IC50 (LEF-TCF-bla HCT116 cells) [µM] | IC50 (Colo320DM) [µM] | ka(1/Ms) (β-catenin [1]) [E + 5 1/Ms] | kd (β-catenin [2]) [s⁻¹] | Kd (β-catenin [3]) [µM] | SMILES
3.16 | 3.1 | – | – | – | CC[C@H](C)[C@@H]1NC(=O)[C@@](C)(NC(=O)[C@H](CCCNC(=N)N)NC(=O)[C@H](CC(C)C)NC(=O)[C@@H](NC(=O)[C@H](CCC(N)=O)N(C)C(=O)[C@H](CC(C)C)NC(C)=O)[C@@H](C)O)CCCC=CCCC[C@@](C)(C(=O)N[C@@H](CC2CCC2)C(=O)N[C@@H](Cc2ccc3ccccc3c2)C(N)=O)NC(=O)[C@H](CCCNC(=N)N)NC(=O)[C@H](CCC(N)=O)NC1=O [SEQ ID NO: 108, L(N-methylQ)TLRXIQRX(CBA)(2-Nal)] (Ac-L[NMeQ]TLR[S5]IQR[S5][Cba][2Nal]-NH2; staple 6-10)
1.54 | 2.53 | 3.348 | 0.009538 | 0.0285 | CC[C@H](C)[C@@H]1NC(=O)[C@@](C)(NC(=O)[C@H](CCCNC(=N)N)NC(=O)[C@H](CC(C)C)NC(=O)[C@@H](NC(=O)[C@H](CCC(N)=O)NC(=O)[C@H](CC(C)C)NC(=O)[C@H](CO)NC(=O)[C@H](CCCNC(=N)N)NC(=O)[C@H](CCC(N)=O)NC(=O)[C@H](CCCNC(=N)N)NC(=O)[C@H](Cc2c[nH]cn2)NC(C)=O)[C@@H](C)O)CCCC=CCCC[C@@](C)(C(=O)N[C@@H](CC2CCC2)C(=O)N[C@@H](Cc2ccc3ccccc3c2)C(N)=O)NC(=O)[C@H](CCCNC(=N)N)NC(=O)[C@H](CCC(N)=O)NC1=O [SEQ ID NO: 147, HRQRSLQTLRXIQRX(CBA)(2-Nal)]
2.26 | 1.91 | – | – | – | CC[C@H](C)[C@@H]1NC(=O)[C@@](C)(NC(=O)[C@H](CCCNC(=N)N)NC(=O)[C@H](CC(C)C)NC(=O)[C@@H](NC(=O)[C@H](CCC(N)=O)N(C)C(=O)[C@H](CC(C)C)NC(=O)[C@H](CO)NC(=O)[C@H](CCCNC(=N)N)NC(=O)[C@H](CCC(=O)O)N(C)C(=O)[C@H](CCCNC(=N)N)NC(=O)[C@H](Cc2c[nH]cn2)NC(C)=O)[C@@H](C)O)CCCC=CCCC[C@@](C)(C(=O)N[C@@H](CC2CCC2)C(=O)N[C@@H](Cc2ccc3ccccc3c2)C(N)=O)NC(=O)[C@H](CCCNC(=N)N)NC(=O)[C@H](CCC(N)=O)NC1=O [SEQ ID NO: 154, HR(N-methylE)RSL(N-methylQ)TLRXIQRX(CBA)(2-Nal)] (Ac-HR[NMeE]RSL[NMeQ]TLR[S5]IQR[S5][Cba][2Nal]-NH2; staple 11-15)
7.05 | 4.19 | – | – | – | CC[C@H](C)[C@@H]1NC(=O)[C@@](C)(NC(=O)[C@H](CCCNC(=N)N)NC(=O)[C@H](CC(C)C)NC(=O)[C@@H](NC(=O)[C@H](CCC(N)=O)NC(=O)[C@H](CC(C)C)NC(=O)[C@H](CO)NC(=O)[C@H](CCCNC(=N)N)NC(=O)[C@H](CCC(N)=O)NC(=O)[C@H](CCCNC(=N)N)NC(=O)[C@H](Cc2c[nH]cn2)NC(C)=O)[C@@H](C)O)CCCC=CCCC[C@@](C)(C(=O)N[C@@H](CC2CC2)C(=O)N[C@@H](Cc2ccc3ccccc3c2)C(N)=O)NC(=O)[C@H](CCCNC(=N)N)NC(=O)[C@H](CCC(N)=O)NC1=O [SEQ ID NO: 162, HRQRSLQTLRXIQRX(Cpa)(2-Nal)] (Ac-HRQRSLQTLR[S5]IQR[S5][Ala(cPr)][2Nal]-NH2; staple 11-15)
4.43 | 2.39 | – | – | – | CC[C@H](C)[C@@H]1NC(=O)[C@@](C)(NC(=O)[C@H](CCCNC(=N)N)NC(=O)[C@H](CC2CCCCC2)NC(=O)[C@@H](NC(=O)[C@H](CCC(N)=O)N(C)C(=O)[C@H](CC(C)C)NC(=O)[C@H](CO)NC(=O)[C@H](CCCNC(=N)N)NC(=O)[C@H](CCC(N)=O)N(C)C(=O)[C@H](CCCNC(=N)N)NC(=O)[C@H](Cc2c[nH]cn2)NC(C)=O)[C@@H](C)O)CCCC=CCCC[C@@](C)(C(=O)N[C@@H](CC2CCC2)C(=O)N[C@@H](Cc2ccc3ccccc3c2)C(N)=O)NC(=O)[C@H](CCCNC(=N)N)NC(=O)[C@H](CCC(N)=O)NC1=O [SEQ ID NO: 163, HR(N-methylQ)RSL(N-methylQ)T(Cha)RXIQRX(CBA)(2-Nal)] (Ac-HR[NMeQ]RSL[NMeQ]T[Cha]R[S5]IQR[S5][Cba][2Nal]-NH2; staple 11-15; N-terminus and C-terminus assumed)
4.45 | 2.67 | – | – | – | CC[C@H](C)[C@@H]1NC(=O)[C@@](C)(NC(=O)[C@H](CCCNC(=N)N)NC(=O)[C@H](CC(C)C)NC(=O)[C@@H](NC(=O)[C@H](CCC(N)=O)NC(=O)[C@H](CC(C)C)NC(=O)[C@H](CO)NC(=O)[C@H](CCCNC(=N)N)NC(=O)[C@H](CCC(N)=O)NC(=O)[C@H](CCCNC(=N)N)NC(=O)[C@H](Cc2c[nH]cn2)NC(C)=O)[C@@H](C)O)CCCC=CCCC[C@@](C)(C(=O)NC2(C(=O)N[C@@H](Cc3ccc4ccccc4c3)C(N)=O)CCCCC2)NC(=O)[C@H](CCCNC(=N)N)NC(=O)[C@H](CCC(N)=O)NC1=O [SEQ ID NO: 177, HRQRSLQTLRXIQRX(A6C)(2-Nal)] (Ac-HRQRSLQTLR[S5]IQR[S5][Ac6c][2Nal]-NH2; staple 11-15)
2.21 | 1.88 | – | – | – | CC[C@H](C)[C@@H]1NC(=O)[C@@](C)(NC(=O)[C@H](CCCNC(=N)N)NC(=O)[C@H](CC(C)C)NC(=O)[C@@H](NC(=O)[C@H](CCC(N)=O)NC(=O)[C@H](CC(C)C)NC(=O)[C@H](CO)NC(=O)[C@H](CCCNC(=N)N)NC(=O)[C@H](CCC(N)=O)NC(=O)[C@H](CCCNC(=N)N)NC(=O)[C@H](Cc2c[nH]cn2)NC(C)=O)[C@@H](C)O)CCCC=CCCC[C@@](C)(C(=O)N[C@@H](CC2CCCCC2)C(=O)N[C@@H](Cc2ccc3ccccc3c2)C(N)=O)NC(=O)[C@H](CCCNC(=N)N)NC(=O)[C@H](CCC(N)=O)NC1=O [SEQ ID NO: 180, HRQRSLQTLRXIQRX(Cha)(2-Nal)] (Ac-HRQRSLQTLR[S5]IQR[S5][Cha][2Nal]-NH2; staple 11-15)
4.46 | 1.82 | – | – | – | CC[C@H](C)[C@@H]1NC(=O)[C@@](C)(NC(=O)[C@H](CCCNC(=N)N)NC(=O)[C@H](CC(C)C)NC(=O)[C@@H](NC(=O)[C@H](CCC(N)=O)N(C)C(=O)[C@H](CC(C)C)NC(=O)[C@H](CO)NC(=O)[C@H](CCCNC(=N)N)NC(=O)[C@H](CCC(N)=O)N(C)C(=O)[C@H](CCCNC(=N)N)NC(=O)[C@H](Cc2c[nH]cn2)NC(C)=O)[C@@H](C)O)CCCC=CCCC[C@@](C)(C(=O)N[C@@H](CC2CCCCC2)C(=O)N[C@@H](Cc2ccc3ccccc3c2)C(N)=O)NC(=O)[C@H](CCCNC(=N)N)NC(=O)[C@H](CCC(N)=O)NC1=O [SEQ ID NO: 181, HR(N-methylQ)RSL(N-methylQ)TLRXIQRX(Cha)(2-Nal)] (Ac-HR[NMeQ]RSL[NMeQ]TLR[S5]IQR[S5][Cha][2Nal]-NH2; staple 11-15)
